Laboratory results taken from patent publication US5595973A, “Protection of hemopoietic cells during chemotherapy or radiotherapy” (Biomeasure Incorporated, priority 1994, dated 1997).
Where a SMILES comes first, the peptide text is derived from it.

Tests used:
Format in all cases: in vivo, BALB/C mice
hemopoietic cells = assay: Proliferation of hemopoietic cells and tolerance of multiple cycles of Ara-C chemotherapy
Description: (§1) A number of assays were performed to show the effect of combining the hemopoiesis inhibitory factor and hemopoiesis growth factor on the proliferation of hemopoietic cells during chemotherapy.
(§2) Three groups of BALB/C mice were used in this study. Mice of the three groups were treated as follows (i.e., with Ara-C, the abbreviation of cytosine arabinoside, as the cytotoxic agent, AcSDKP as the hemopoiesis inhibitory factor, and GM-CSF as the hemopoiesis growth factor):
(§3) In each group, the animals were subjected to a sequence of three cycles of chemotherapy, i.e., Cycle I (Days 0-20), Cycle II (Days 21-37), and Cycle III (Days 38-56). Note that animals in each group were sacrificed on specific days for collection of blood samples, eliminating the artifact that may have been induced by intensive repetitive bleedings of the same animals.
(§4) Minipump implantations and excisions: The 200 μl capacity ALZET™ osmotic minipump Model 2001 (Alza Corporation, Palo Alto, Calif.) primed to deliver 1.0 μL/hour for 7 days was used for continuously administering the 100 ng/hour of AcSDKP in each cycle. More specifically, during each cycle, AcSDKP primed pumps were implanted s.c. prior to the first administration of Ara-C in the A.M. of day zero and excised in the A.M. of day 7. The first administration of Ara-C was in the A.M. of day zero and the last administration in the A.M. of day 6 (q.d., or once per day).
Treatment cycle: For the animals of Group 3, each cycle consists of a period in which Ara-C and AcSDKP were administered, a period in which the administered Ara-C and AcSDKP were purged, a period in which GM-CSF was administered, and, finally, a further recovery period. More specifically, after 7 consecutive days of Ara-C treatment during which time AcSDKP was administered by continuous s.c. infusion (see the preceding paragraph), a 2-day period followed so as to allow for purging of both AcSDKP and Ara-C. […]

platelets = assay: Platelet counts in mice during three cycles of Ara-C chemotherapy
Description: as §1, §2, §3, §4
(§5) Treatment cycle: For the animals of Group 3, each cycle consists of a period in which Ara-C and AcSDKP were administered, a period in which the administered Ara-C and AcSDKP were purged, a period in which GM-CSF was administered, and, finally, a further recovery period. More specifically, after 7 consecutive days of Ara-C treatment during which time AcSDKP was administered by continuous s.c. infusion (see the preceding paragraph), a 2-day period followed so as to allow for purging of both AcSDKP and Ara-C. GM-CSF was then administered for 4 days (b.i.d., or twice per day), and the animals were permitted 4-8 more days at the end of the GM-CSF administration to recover before the initiation of the subsequent cycle (as in Cycles I and II) or before the collection of the last blood samples (as in Cycle III).
(§6) Blood sample collection: Blood samples (maximum attainable volume) for clinical pathology evaluations were collected from mice at euthanasia. The mice were food-fasted overnight prior to blood collection and samples were collected by puncture of the retro-orbital sinus after anesthetization by CO2 inhalation.
(§7) Analysis of blood samples: Hematology data were collected electronically and processed by the HUMMINGBIRD™ computer system (Laboratories Consulting, Inc., Madison, Wis.). Blood samples were processed and evaluated for the parameters specified (polymorphonuclear cell, platelet, and white blood cell counts in 10^3 cells/[…] as shown in Tables 2 and 3) using a Sysmex TOAE-2500 hematology analyzer (TOA Medical Electronics, Kobe, Japan).
(§8) See the right-hand column "percent change," i.e., (cell count from Group 2/cell count from Group 1)×100%, in Table 2. The data in Table 2 (as well as in Table 3) are log transformed to minimize the effect of outliers and the geometric means of the data are used for the analyses. The difference in the means between two test groups are compared for each of three different stages, i.e., chemotherapy (days 0-4, 21-25 and 38-42 in Cycles I, II and III, respectively), nadir (days 5-10, 26-31 and 43-48 in Cycles I, II and III, respectively), or recovery (days 11-20, 32-37 and 49-56 in Cycles I, II and III, respectively). Significant differences are marked by a large dot, which stands for P<0.003, a statistically significant p-value for data compared between two groups combined over the three cycles.

polymorphonuclear cells = assay: Polymorphonuclear cell counts in mice during three cycles of Ara-C chemotherapy
Description: as §1, §2, §3, §4, §5, §6, §7
as §8, with “The” for “See the right-hand column "percent change," i.e., (cell count from Group 2/cell count from Group 1)×100%, in Table 2. The”

white blood cells = assay: White blood cell counts in mice during three cycles of Ara-C chemotherapy
Description: as §1, §2, §3, §4, §5, §6, §7, §8

[1] = Group 3 (Ara-C+AcSDKP+GM-CSF) vs Group 2 (Ara-C+GM-CSF), Cycle I, Chemotherapy (days 0-4)
[2] = Group 3 (Ara-C+AcSDKP+GM-CSF) vs Group 2 (Ara-C+GM-CSF), Cycle II, Chemotherapy (days 21-25)
[3] = Group 3 (Ara-C+AcSDKP+GM-CSF) vs Group 2 (Ara-C+GM-CSF), Cycle III, Chemotherapy (days 38-42)
[4] = Group 3 (Ara-C+AcSDKP+GM-CSF) vs Group 2 (Ara-C+GM-CSF), Cycle I, Nadir (days 5-10)
[5] = Group 3 (Ara-C+AcSDKP+GM-CSF) vs Group 2 (Ara-C+GM-CSF), Cycle I, Recovery (days 11-20), marked significant
[6] = Group 3 (Ara-C+AcSDKP+GM-CSF) vs Group 2 (Ara-C+GM-CSF), Cycle II, Nadir (days 26-31)
[7] = Group 3 (Ara-C+AcSDKP+GM-CSF) vs Group 2 (Ara-C+GM-CSF), Cycle II, Recovery (days 32-37), marked significant
[8] = Group 3 (Ara-C+AcSDKP+GM-CSF) vs Group 2 (Ara-C+GM-CSF), Cycle III, Nadir (days 43-48)
[9] = Group 3 (Ara-C+AcSDKP+GM-CSF) vs Group 2 (Ara-C+GM-CSF), Cycle III, Recovery (days 49-56), marked significant
[10] = Group 2 (Ara-C+GM-CSF) vs Group 1 (Ara-C), Cycle I, Chemotherapy (days 0-4)
[11] = Group 2 (Ara-C+GM-CSF) vs Group 1 (Ara-C), Cycle I, Nadir (days 5-10)
[12] = Group 2 (Ara-C+GM-CSF) vs Group 1 (Ara-C), Cycle II, Chemotherapy (days 21-25)
[13] = Group 2 (Ara-C+GM-CSF) vs Group 1 (Ara-C), Cycle II, Nadir (days 26-31)
[14] = Group 2 (Ara-C+GM-CSF) vs Group 1 (Ara-C), Cycle III, Chemotherapy (days 38-42)
[15] = Group 2 (Ara-C+GM-CSF) vs Group 1 (Ara-C), Cycle III, Nadir (days 43-48)
[16] = Group 2 (Ara-C+GM-CSF) vs Group 1 (Ara-C), Cycle I, Recovery (days 11-20)
[17] = Group 2 (Ara-C+GM-CSF) vs Group 1 (Ara-C), Cycle II, Recovery (days 32-37)
[18] = Group 2 (Ara-C+GM-CSF) vs Group 1 (Ara-C), Cycle III, Recovery (days 49-56)

## CC(=O)N[C@@H](CO)C(=O)N[C@@H](CC(=O)O)C(=O)N[C@@H](CCCCN)C(=O)N1CCC[C@H]1C(=O)O [AcSDKP, N-Acetyl-Ser-Asp-Lys-Pro] (Ac-SDKP-OH)
Hemopoietic cells; Group 3 (Ara-C+AcSDKP+GM-CSF) vs Group 2 (Ara-C+GM-CSF)
  Blood cell levels, effect of AcSDKP present during chemotherapy: contributed to subsequent enhancement of blood cell levels by GM-CSF
Hemopoietic cells; combined use of AcSDKP and GM-CSF with Ara-C (Group 3)
  Ability to tolerate multiple cycles of chemotherapy: allows multiple cycles of chemotherapy
platelets; [1]
  Percent change, platelet count: -53.4439%
platelets; Group 3 (Ara-C+AcSDKP+GM-CSF) vs Group 2 (Ara-C+GM-CSF), Cycle I, Nadir (days 5-10), marked significant
  Percent change, platelet count: 20.9005%
platelets; Group 3 (Ara-C+AcSDKP+GM-CSF) vs Group 2 (Ara-C+GM-CSF), Cycle I, Recovery (days 11-20)
  Percent change, platelet count: 23.6811%
platelets; [2]
  Percent change, platelet count: 29.203%
platelets; Group 3 (Ara-C+AcSDKP+GM-CSF) vs Group 2 (Ara-C+GM-CSF), Cycle II, Nadir (days 26-31), marked significant
  Percent change, platelet count: 49.9274%
platelets; Group 3 (Ara-C+AcSDKP+GM-CSF) vs Group 2 (Ara-C+GM-CSF), Cycle II, Recovery (days 32-37)
  Percent change, platelet count: 13.851%
platelets; [3]
  Percent change, platelet count: 36.6101%
platelets; Group 3 (Ara-C+AcSDKP+GM-CSF) vs Group 2 (Ara-C+GM-CSF), Cycle III, Nadir (days 43-48), marked significant
  Percent change, platelet count: 32.1586%
platelets; Group 3 (Ara-C+AcSDKP+GM-CSF) vs Group 2 (Ara-C+GM-CSF), Cycle III, Recovery (days 49-56)
  Percent change, platelet count: -0.7018%
platelets; Group 3 (Ara-C+AcSDKP+GM-CSF) vs Group 2 (Ara-C+GM-CSF), nadir periods, p=0.0006
  Platelet counts, change in words: significantly increased
Polymorphonuclear cells; [1]
  Percent change, polymorphonuclear cell count: -66.466%
Polymorphonuclear cells; [4]
  Percent change, polymorphonuclear cell count: -27.344%
Polymorphonuclear cells; [5]
  Percent change, polymorphonuclear cell count: 52.314%
Polymorphonuclear cells; [2]
  Percent change, polymorphonuclear cell count: -44.682%
Polymorphonuclear cells; [6]
  Percent change, polymorphonuclear cell count: 130.128%
Polymorphonuclear cells; [7]
  Percent change, polymorphonuclear cell count: 100.223%
Polymorphonuclear cells; [3]
  Percent change, polymorphonuclear cell count: 37.246%
Polymorphonuclear cells; [8]
  Percent change, polymorphonuclear cell count: 42.105%
Polymorphonuclear cells; [9]
  Percent change, polymorphonuclear cell count: 95.829%
Polymorphonuclear cells; Group 3 (Ara-C+AcSDKP+GM-CSF) vs Group 2 (Ara-C+GM-CSF), recovery periods, p=<0.0001
  Polymorphonuclear cell counts, change in words: significantly increased
White blood cells; [1]
  Percent change, white blood cell count: -39.0687%
White blood cells; [4]
  Percent change, white blood cell count: -47.8669%
White blood cells; [5]
  Percent change, white blood cell count: 29.1779%
White blood cells; [2]
  Percent change, white blood cell count: -57.7294%
White blood cells; [6]
  Percent change, white blood cell count: -10.6607%
White blood cells; [7]
  Percent change, white blood cell count: 44.2989%
White blood cells; [3]
  Percent change, white blood cell count: 19.207%
White blood cells; [8]
  Percent change, white blood cell count: -9.4556%
White blood cells; [9]
  Percent change, white blood cell count: 50.2142%
White blood cells; Group 3 (Ara-C+AcSDKP+GM-CSF) vs Group 2 (Ara-C+GM-CSF), recovery periods, p=0.0001
  White blood cell counts, change in words: significantly increased

## GM-CSF: granulocyte/macrophage-colony stimulating factor, the hemopoiesis growth factor, procured from Immunix Research and Development Corp.
Hemopoietic cells; Group 2 (Ara-C+GM-CSF) vs Group 1 (Ara-C)
  Ability of the animals to tolerate multiple cycles of chemotherapy: did not enhance
platelets; [10]
  Percent change, platelet count: 30.5966%
platelets; [11]
  Percent change, platelet count: 0.0332%
platelets; Group 2 (Ara-C+GM-CSF) vs Group 1 (Ara-C), Cycle I, Recovery (days 11-20), marked significant
  Percent change, platelet count: 10.6804%
platelets; [12]
  Percent change, platelet count: 0.5878%
platelets; [13]
  Percent change, platelet count: 0.0259%
platelets; Group 2 (Ara-C+GM-CSF) vs Group 1 (Ara-C), Cycle II, Recovery (days 32-37), marked significant
  Percent change, platelet count: 20.4577%
platelets; [14]
  Percent change, platelet count: 15.5436%
platelets; [15]
  Percent change, platelet count: 14.0708%
platelets; Group 2 (Ara-C+GM-CSF) vs Group 1 (Ara-C), Cycle III, Recovery (days 49-56), marked significant
  Percent change, platelet count: 11.9135%
platelets; Group 2 (Ara-C+GM-CSF) vs Group 1 (Ara-C), recovery periods, three cycles combined, p=0.0003
  Platelet counts, change in words: significantly increased
Polymorphonuclear cells; [10]
  Percent change, polymorphonuclear cell count: -0.2001%
Polymorphonuclear cells; [11]
  Percent change, polymorphonuclear cell count: 23.1962%
Polymorphonuclear cells; [16]
  Percent change, polymorphonuclear cell count: 21.7299%
Polymorphonuclear cells; [12]
  Percent change, polymorphonuclear cell count: 19.8969%
Polymorphonuclear cells; [13]
  Percent change, polymorphonuclear cell count: 9.4827%
Polymorphonuclear cells; [17]
  Percent change, polymorphonuclear cell count: -10.9401%
Polymorphonuclear cells; [14]
  Percent change, polymorphonuclear cell count: 29.7855%
Polymorphonuclear cells; [15]
  Percent change, polymorphonuclear cell count: 1.6526%
Polymorphonuclear cells; [18]
  Percent change, polymorphonuclear cell count: -0.7213%
White blood cells; [10]
  Percent change, white blood cell count: -9.1838%
White blood cells; [11]
  Percent change, white blood cell count: 17.5916%
White blood cells; [16]
  Percent change, white blood cell count: 5.3418%
White blood cells; [12]
  Percent change, white blood cell count: 43.1551%
White blood cells; [13]
  Percent change, white blood cell count: 40.2987%
White blood cells; [17]
  Percent change, white blood cell count: -7.2022%
White blood cells; [14]
  Percent change, white blood cell count: 7.717%
White blood cells; [15]
  Percent change, white blood cell count: -9.5103%
White blood cells; [18]
  Percent change, white blood cell count: -0.8913%
White blood cells; Group 2 (Ara-C+GM-CSF) vs Group 1 (Ara-C), recovery period of Cycles II and III
  White blood cell counts, change in words: decreased
